Measurements reported in PubChem BioAssay (NCI).
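A five-concentration, 48-hour dose response in 96-well plates underlies each endpoint, interpolated linearly between surrounding concentrations. TGI: concentration producing complete growth inhibition.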

Key:
Assay in all cases: NCI tumour cell line growth inhibition, 48 h
RXF 393 renal = tested on: RXF 393 renal
HCT-116 colon = tested on: HCT-116 colon
SW-620 colon = tested on: SW-620 colon
KM12 colon = tested on: KM12 colon
HT29 colon = tested on: HT29 colon
HOP-62 NSCLC = tested on: HOP-62 NSCLC
RXF-631 renal = tested on: RXF-631 renal
SN12C renal = tested on: SN12C renal
U251 CNS = tested on: U251 CNS
LOX IMVI melanoma = tested on: LOX IMVI melanoma
OVCAR-8 ovarian = tested on: OVCAR-8 ovarian
K-562 leukemia = tested on: K-562 leukemia
KM20L2 colon = tested on: KM20L2 colon
786-0 renal = tested on: 786-0 renal
XF 498 CNS = tested on: XF 498 CNS
OVCAR-4 ovarian = tested on: OVCAR-4 ovarian
DLD-1 colon = tested on: DLD-1 colon
MALME-3M melanoma = tested on: MALME-3M melanoma
MOLT-4 leukemia = tested on: MOLT-4 leukemia
NCI-H226 lung = tested on: NCI-H226 lung
SK-MEL-28 melanoma = tested on: SK-MEL-28 melanoma
A498 renal = tested on: A498 renal
UO-31 renal = tested on: UO-31 renal
SF-539 CNS = tested on: SF-539 CNS
DMS 273 small cell lung = tested on: DMS 273 small cell lung
CAKI-1 renal = tested on: CAKI-1 renal
HOP-18 NSCLC = tested on: HOP-18 NSCLC
M19-MEL melanoma = tested on: M19-MEL melanoma
IGROV1 ovarian = tested on: IGROV1 ovarian
SK-MEL-5 melanoma = tested on: SK-MEL-5 melanoma
M14 melanoma = tested on: M14 melanoma
HCC-2998 colon = tested on: HCC-2998 colon
NCI-H460 lung = tested on: NCI-H460 lung
ACHN renal = tested on: ACHN renal
EKVX NSCLC = tested on: EKVX NSCLC
OVCAR-3 ovarian = tested on: OVCAR-3 ovarian
SK-OV-3 ovarian = tested on: SK-OV-3 ovarian
SNB-78 CNS = tested on: SNB-78 CNS
SK-MEL-2 melanoma = tested on: SK-MEL-2 melanoma
UACC-257 melanoma = tested on: UACC-257 melanoma
A549 NSCLC = tested on: A549 NSCLC
NCI-H23 lung = tested on: NCI-H23 lung
CCRF-CEM leukemia = tested on: CCRF-CEM leukemia
SF-268 CNS = tested on: SF-268 CNS
HL-60(TB) leukemia = tested on: HL-60(TB) leukemia
NCI-H522 lung = tested on: NCI-H522 lung
SR leukemia = tested on: SR leukemia
COLO 205 colon = tested on: COLO 205 colon
SNB-75 CNS = tested on: SNB-75 CNS
UACC-62 melanoma = tested on: UACC-62 melanoma
TK-10 renal = tested on: TK-10 renal
SNB-19 CNS = tested on: SNB-19 CNS
LXFL 529 NSCLC = tested on: LXFL 529 NSCLC
SF-295 CNS = tested on: SF-295 CNS
OVCAR-5 ovarian = tested on: OVCAR-5 ovarian
HOP-92 NSCLC = tested on: HOP-92 NSCLC
HCT-15 colon = tested on: HCT-15 colon
RPMI-8226 leukemia = tested on: RPMI-8226 leukemia

Measured: TGI

Cc1cccc(C(C)(C)C)c1NC(=O)CCl
not listed: OVCAR-5 ovarian | HOP-92 NSCLC | HCT-15 colon | RPMI-8226 leukemia
> 100 µM: all other assays above

CCOC(=O)c1csc(CCCCCCc2nc(C(=O)OCC)cs2)n1
86.3 µM: XF 498 CNS
96.9 µM: UACC-257 melanoma
> 88 µM: SF-539 CNS
> 56.7 µM: 786-0 renal
99.7 µM: NCI-H23 lung
98.1 µM: COLO 205 colon
> 65.4 µM: SW-620 colon | HL-60(TB) leukemia
64 µM: RXF 393 renal
> 83.8 µM: SK-MEL-28 melanoma
> 66.5 µM: A549 NSCLC
> 89.1 µM: HOP-62 NSCLC
> 63.9 µM: CCRF-CEM leukemia
70.4 µM: SNB-75 CNS
57.5 µM: M19-MEL melanoma
> 59.6 µM: U251 CNS
> 87.2 µM: OVCAR-8 ovarian
97.5 µM: NCI-H226 lung
> 69.2 µM: RPMI-8226 leukemia
> 54.5 µM: LOX IMVI melanoma
> 52.3 µM: HCT-116 colon
> 57.7 µM: NCI-H460 lung
> 62 µM: K-562 leukemia
> 100 µM: all other assays above
